From patent US8946302B2, “Selective sigma-1 receptor ligands” (Wisconsin Alumni Research Foundation, priority 2008, dated 2015)
Where “and” joins values, the source holds several entries; their conditions need not be identical. Equal entries are not always repeated. Where two headings read alike, the source gives them in different places.

What was measured:
[1] = target: T1, purified sigma-1 receptor (Cavia porcellus, UniProt Q60492); assay: Competitive displacement of [3H]-(+)-pentazocine at the pure sigma-1 receptor; format: binding, guinea pig; details: read-out: Ki Pure σ-1R
T1 construct: made in house; host or cells: E. coli BL21 DE3
Experimental: A guinea pig sigma-1 receptor was purified as previously described (Ramachandran et al., Protein Expr. Purif., 2007. 51(2): 283-92). The pMal P2X plasmid (New England Biolabs) encoding the guinea pig sigma-1 receptor on the C-terminus of the E. coli Maltose Binding Protein was used for purification. The sigma-1 receptor on its C-terminus carried a hexa-histadine epitope tag. Protein was expressed in the E. coli strain BL21 DE3 (Novagen) with 0.6 mM IPTG. The E. coli pellet was sonicated and centrifuged at 100,000 g for 1 hour to separate the particulate and soluble fractions. The particulate fraction was extracted with Triton X-100, centrifuged and the extract was loaded onto an amylose resin (New England Biolabs, E-802). After washing the resin with buffer containing 0.5% Triton X-100, the MBP-sigma-1 receptor fusion protein was eluted with buffer containing 10 mM maltose.
The MBP-sigma-1-receptor fusion protein was cleaved with Factor Xa protease (Novagen) at room temperature for 24-48 hours and the cleavage was monitored with SDS-polyacrylamide gel electrophoresis. The sigma-1 receptor from the Factor Xa cleavage was purified with a HIS-Select HC Nickel affinity gel (Sigma-Aldrich P6611) in a batch format. The resin was washed with buffer containing 0.5% Triton X-100 detergent and the beads were separated by a brief centrifugation at 4000 rpm in a microcentrifuge. After washing to remove MBP, the pure sigma-1 receptor was eluted in buffer containing 250 mM imidazole.
To remove the undigested MBP-sigma-1 receptor fusion protein that is carried over in the Ni^2+ purification, the eluate from the Ni^2+ purification was incubated with Anti-MBP antibody conjugated to agarose (Vector Laboratories, Burlingame, Calif.) at 4° C. for 18-24 hours. The beads were separated by centrifugation and the supernatant contained the pure sigma-1 receptor.
Competition ligand binding to the pure sigma-1 receptor was performed as previously described. […] After incubation at 30° C. for 60 minutes, the reaction was terminated by rapid filtration through glass fiber filters (Whatman GF/B), using a Brandel cell harvester (Brandel, Gaithersburg, Md.). The glass fiber filters were pre-soaked in 0.5% polyethyleneimine (PEI) for at least 1 hour at room temperature (˜23° C.). Filters were washed 4 times with 4 mL of ice-cold 50 mM Tris-C1, pH 8.0. Radioactivity was quantified by liquid scintillation counting using a Packard model 1600 CA scintillation counter.

sigma-1 receptor [2] = target: T2, sigma-1 receptor (Cavia porcellus, UniProt Q60492); assay: Affinity for the sigma-1 receptor (Table 3); format: binding; design: from tissue
NCI-H460 = assay: Cytotoxicity assay NCI-H460; format: cell-based; details: Homo sapiens, HU lung, read-out: IC50 (SE) growth inhibition
Experimental: (§1) Multi-plex cytotoxicity assays were performed by the Keck-UWCCC Small Molecule Screening Facility (Madison, Wis.). Specific methodology can be found online at http://hts.wisc.edu/Resources.htm#mpa.

sigma-1 receptor [3] = target: T2, sigma-1 receptor; assay: Sigma-1 competitive binding, (+)-[3H]pentazocine, guinea pig liver membranes (Example 6); design: from tissue; host or cells: guinea pig liver membranes;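 also: compounds tested over serial concentrations, 45 min incubation at 30 °C with membrane preparations, read-out is displacement of bound radioligand from the receptor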
Experimental: (§2) Minced frozen rat livers or guinea pig livers (65 g) were thawed in 100 mL homogenization buffer (10 mM phosphate buffer pH 7.4 containing 0.32M sucrose, 1 M MgSO4, 0.5 M EGTA, 1 mM phenylmethylsulphonyl fluoride (PMSF), 10 μg/mlleupeptin, 1 μg/ml pepstatin A, 10 μg/ml p-toluenesulfonyl-L-arginine methyl ester (TAME) and then homogenized on ice with a Brinkman polytron homogenizer (setting 6, 4 bursts of 10 second each) followed by a glass homogenizer (Teflon pestle by 6 slow passes at 3,000 rpm). The homogenized tissues were then centrifuged at 17,000 g for 10 minutes. The supernatants were re-centrifuged at 100,000 g for 1 hour. The microsomal pellets were resuspended in homogenization buffer, snap frozen with dry ice-ethanol, and stored at −80° C. at a final protein concentration of 20 mg/mL.
(§3) Assays for sigma-1 were performed using 10 nM (+)-[^3H]pentazocine in guinea pig liver homogenates (25 μg/well) incubated at 30° C. for 1 hour with several concentrations of competing ligands. After incubation, membranes were harvested on a 0.5% PEI-treated Whatman GF/B filters using a Brandel Cell Harvester. (+)-[^3H]pentazocine binding was determined by liquid scintillation counting. […] Serial concentrations of the compounds evaluated were added to the reactions for 45 minutes at 30° C. and the samples vacuum filtered through 0.5% polyethyleneimine (PEI) treated Whatman GF/B as described above to measure displacement of the radioligands from the sigma receptor subtypes.

A549 = assay: Cytotoxicity assay A549; format: cell-based; details: Homo sapiens, HU lung, read-out: IC50 (SE) growth inhibition
Experimental: as §1

HCT-45 = assay: Cytotoxicity assay HCT-45; format: cell-based; details: Homo sapiens, HU Colorectal, read-out: IC50 (SE) growth inhibition
Experimental: as §1

MCP10A = assay: Cytotoxicity assay MCP10A; format: cell-based; details: Homo sapiens, HU Breast, read-out: IC50 (SE) growth inhibition
Experimental: as §1

MCF7 = assay: Cytotoxicity assay MCF7; format: cell-based; details: Homo sapiens, HU Breast, read-out: IC50 (SE) growth inhibition
Experimental: as §1

HT-29 = assay: Cytotoxicity assay HT-29; format: cell-based; details: Homo sapiens, HU Colorectal, read-out: IC50 (SE) growth inhibition
Experimental: as §1

Du145 = assay: Cytotoxicity assay Du145; format: cell-based; details: Homo sapiens, DU-145, HU Prostate, read-out: IC50 (SE) growth inhibition
Experimental: as §1

SF268 = assay: Cytotoxicity assay SF268; format: cell-based; details: Homo sapiens, SF-268, HU CNS, read-out: IC50 (SE) growth inhibition
Experimental: as §1

MB-MDA-231 = assay: Cytotoxicity assay MB-MDA-231; format: cell-based; details: Homo sapiens, HU Breast, read-out: IC50 (SE) growth inhibition
Experimental: as §1

sigma-2 receptor = target: T3, sigma-2 receptor (Rattus norvegicus, UniProt Q5U3Y7); assay: Sigma-2 competitive binding, [3H]-DTG with (+)-pentazocine, rat liver membranes (Example 6); design: from tissue; host or cells: rat liver membranes
T3 sequence (Q5U3Y7 1-176): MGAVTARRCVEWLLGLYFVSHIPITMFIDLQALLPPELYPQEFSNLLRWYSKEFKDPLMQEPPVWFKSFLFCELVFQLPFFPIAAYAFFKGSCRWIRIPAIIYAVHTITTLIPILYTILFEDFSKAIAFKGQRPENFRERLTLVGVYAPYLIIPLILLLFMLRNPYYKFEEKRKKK
Experimental: as §2, §3

HI299 = assay: Cytotoxicity assay HI299; format: cell-based; details: Homo sapiens, HU Lung, read-out: IC50 (SE) growth inhibition
Experimental: as §1

SKOV-3 = assay: Cytotoxicity assay SKOV-3; format: cell-based; details: Homo sapiens, SK-OV-3, HU Ovarian, read-out: IC50 (SE) growth inhibition
Experimental: as §1

σ-2 Sites = target: T4, σ-2 Sites (Rattus norvegicus, UniProt Q5U3Y7); assay: σ-2 sites radioligand binding, rat liver membranes (Table 2)
T4 construct: from tissue
T4 sequence (Q5U3Y7 1-176): T3 sequence (Q5U3Y7 1-176)
Experimental: as §3

σ-1 Sites = target: T5, σ-1 Sites (Cavia porcellus, UniProt Q60492); assay: σ-1 sites radioligand binding, guinea pig liver membranes (Table 2)
T5 construct: from tissue
Experimental: as §3

tumor cell lines = assay: Cytotoxicity assays, various tumor cell lines (statements in words); format: cell-based, human
Experimental: Because sigma-1 receptors are overexpressed in numerous tumor cell lines, which include breast cancer, lung carcinoma, renal carcinoma, colon carcinoma, sarcoma, brain tumors, melanoma, glioblastoma, neuroblastoma, and prostate cancer, the ability of the compounds to inhibit the growth of various tumor cell lines were tested.
as §1

[4] = guinea pig liver membranes, n = 3, read-out: Sigma 1 KD values
[5] = rat liver membranes, n = 3, read-out: Sigma2 KD values

T2 sequence (Q60492 whole entry): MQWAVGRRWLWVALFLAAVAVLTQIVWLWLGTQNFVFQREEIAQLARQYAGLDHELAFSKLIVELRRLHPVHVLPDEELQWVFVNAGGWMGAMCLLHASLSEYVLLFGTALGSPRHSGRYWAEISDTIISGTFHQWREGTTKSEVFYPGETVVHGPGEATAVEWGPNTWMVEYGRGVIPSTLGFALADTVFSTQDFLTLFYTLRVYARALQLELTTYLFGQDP
T1 sequence (Q60492 whole entry): as above
T5 sequence (Q60492 whole entry): as above

SMILES: CCCCCCN [Hexylamine]
- Ki ([1]; [3H]-(+)-pentazocine 10 nM): 37.5 µM and 37 µM

SMILES: CCCN(CCCc1ccc([N+](=O)[O-])cc1)CCc1ccc(N)cc1 [HD4]
- Kd (sigma-1 receptor [2]; read-out: Sigma-1 KD): 0.006 µM

SMILES: CCCCCCCCCCCCCCCCN [Hexadecylamine]
- Ki ([1]; [3H]-(+)-pentazocine 10 nM): 2.7 µM and 3 µM

SMILES: CCCCN(CCCC)CCCc1ccc(F)cc1 [Compound 10, N,N-Dibutyl-3-(4-fluorophenyl)propylamine]
- IC50 (NCI-H460): > 100 µM
- Ratio (σ2/σ1) (sigma-1 receptor [3]): 38.7
- Kd (sigma-1 receptor [3]; [4]): 0.0177 µM
- IC50 (A549): > 100 µM
- IC50 (HCT-45): > 100 µM
- IC50 (MCP10A): > 100 µM
- IC50 (MCF7): > 100 µM
- IC50 (HT-29): > 100 µM
- IC50 (Du145): > 100 µM
- IC50 (SF268): > 100 µM
- IC50 (MB-MDA-231): > 100 µM
- Kd (sigma-2 receptor; [5]): 0.685 µM
- IC50 (HI299): > 100 µM
- IC50 (SKOV-3): 56.2 µM

SMILES: CCCN(Cc1ccc([N+](=O)[O-])cc1)C(=O)CCc1ccc(F)cc1 [Compound 13, N-Propyl-N-(4-nitro-benzyl)-3-(4-fluorophenyl)propionamide]
- Kd (sigma-2 receptor; [5]): 236 µM

SMILES: CCCCCCCCCCCCN [Dodecylamine]
- Ki ([1]; [3H]-(+)-pentazocine 10 nM): 0.18 µM and 0.2 µM

SMILES: CCCNCCc1ccc(F)cc1 [Compound 9]
- Kd (sigma-1 receptor [3]): 0.091 µM
- Ratio (σ2/σ1) (sigma-1 receptor [3]): 2.53
- Kd (sigma-2 receptor): 0.23 µM

SMILES: CCCN(CCCc1ccc([N+](=O)[O-])cc1)CCc1ccc(N)cc1 [Compound 18, N-Propyl-N-4-aminophenylethyl-3-(4-nitrophenyl)propylamine]
- IC50 (NCI-H460): > 100 µM
- Ratio (σ2/σ1) (sigma-1 receptor [3]): 13.93 ^
- IC50 (A549): > 100 µM
- IC50 (HCT-45): > 100 µM
- IC50 (MCP10A): > 100 µM
- IC50 (MCF7): 86.1 µM
- IC50 (HT-29): > 100 µM
- IC50 (Du145): > 100 µM
- IC50 (SF268): > 100 µM
- IC50 (MB-MDA-231): > 100 µM
- Kd (sigma-2 receptor; [5]): 0.0836 µM
- IC50 (HI299): > 100 µM
- IC50 (SKOV-3): > 100 µM

SMILES: CN(C)CCc1c[nH]c2ccccc12 [Compound 1]
- Kd (sigma-1 receptor [3]; [4]): > 50000 µM

SMILES: CCCCCCCCCCCCCCCCCCNCCCc1ccccc1 [Compound 1g, N-(3-Phenylpropyl)octadecan-1-amine]
- Ki (σ-2 Sites): 19.9 µM
- Ki ([1]; [3H]-(+)-pentazocine): 0.0422 µM
- Ki (σ-1 Sites; guinea pig liver membranes): 34.4 µM
- σ-1 selectivity σ-2 Ki/σ-1 Ki (σ-1 Sites; σ-2 rat liver / σ-1 guinea pig liver membranes): 0.7

SMILES: NCCCc1ccccc1 [Compound 2]
- Ratio (σ2/σ1) (sigma-1 receptor [3]): 3.92
- Kd (sigma-1 receptor [3]; [4]): 68.9 µM
- Kd (sigma-2 receptor; [5]): 270 µM

SMILES: CCCNCCc1ccc(F)cc1 [HD7]
- Kd (sigma-1 receptor [2]): 0.091 µM

SMILES: CCCCN(CCCC)CCCC [Compound 6]
- Ratio (σ2/σ1) (sigma-1 receptor [3]): 6.41
- Kd (sigma-1 receptor [3]; [4]): 7 µM
- Kd (sigma-2 receptor; [5]): 44.8 µM

SMILES: CCCCCN [Amylamine]
- Ki ([1]; [3H]-(+)-pentazocine 10 nM): 167 ± 35.2 µM

SMILES: CCCCN(CCCC)CCCc1ccc([N+](=O)[O-])cc1 [Compound 11, N,N-Dibutyl-3-(4-nitrohenyl)propylamine]
- IC50 (NCI-H460): 40.5 µM
- Ratio (σ2/σ1) (sigma-1 receptor [3]): 1347
- Kd (sigma-1 receptor [3]; [4]): 0.0003 µM
- IC50 (A549): > 100 µM
- IC50 (HCT-45): > 100 µM
- IC50 (MCP10A): > 100 µM
- IC50 (MCF7): 22.4 µM
- IC50 (HT-29): > 100 µM
- IC50 (Du145): 32.7 µM
- IC50 (SF268): > 100 µM
- IC50 (MB-MDA-231): 57.1 µM
- Kd (sigma-2 receptor; [5]): 0.404 µM
- IC50 (HI299): > 100 µM
- IC50 (SKOV-3): 27.9 µM
- cytotoxicity / tumor cell growth inhibition (tumor cell lines): robustly inhibits growth in MB-MDA231, MCF7, Du145, and NCI-H460 cell lines in addition to SKOV-3 cells

SMILES: CCCCNCc1ccc([N+](=O)[O-])cc1 [Compound 16, N-Butyl-N-4-nitrobenzylamine]
- Ratio (σ2/σ1) (sigma-1 receptor [3]): 1.4622
- Kd (sigma-1 receptor [3]; [4]): 1.15 µM
- Kd (sigma-2 receptor; [5]): 1.68 µM
